Assay results reported in patent US7550469B2, “Heterocyclic amide derivatives and their use as dopamine D3 receptor ligands” (Aventis Pharmaceuticals Inc., priority 2001, dated 2009).

Biological target: T1, cloned human dopamine D3 receptors (Homo sapiens, UniProt P35462)
T1 construct: expressed in transfected cells; membrane homogenate
Test: [N-Methyl-3H]Spiroperidol binding to cloned human dopamine D3 receptors (Protocol 1)
Conditions: the 13th table, unit inferred; read-out: D3Ki
From the text: [N-Methyl-^3H]Spiroperidol Binding to Cloned Human Dopamine D3 Receptors
This assay measures the in vitro activity of compounds on cloned human dopamine (D3) receptors and predicts the direct dopamine-blocking properties of putative neuropsychiatric agents at human dopamine D3 receptors.
The D3 gene was isolated from a human striatal cDNA library (Stratagene). The gene was sequenced and sub-cloned into the expression vector RC/RSV (Invitrogen). CHO (Chinese Hamster Ovary) cells were stably transfected with 10 μg of the D3/RSV plasmid using the DOTAP method from Boehringer Mannheim and 72 clones that were G418 resistant were isolated. Using mRNA and binding displacement data a single high expressing clone was identified. This clone was then grown in large batches for the purpose of developing a 96 well format assay.
• 1. One plate (10 cm) with approximately 2-3 million D3 cells per plate is incubated with 1 ml of Trypsin-EDTA at room temperature for ˜2 min or until cells have lifted off plates. Four ml of Ham's F12+10% Fetal Bovine Serum+1% Penicillin/Streptomycin+G418 (400 μg/ml) medium are added to resuspend cells and 1 ml of this is added to each large plate (15 cm) containing 19 ml of the-same medium as mentioned above. • 2. The 5 large plates are incubated at 37° C.+5% CO2 for ˜3 days or until the cells are confluent. • 3. After these plates are confluent, they are split into 10 large plates. Medium is aspirated off, 2 ml of Trypsin-EDTA are added to each plate and plates are incubated at RT for 2 min or until cells have lifted off the plate. Eight ml of the F12 medium (same medium as #1 above) are added to each plate (10 ml total) to resuspend the cells and 5 ml are transferred to the 2 new plates containing 15 ml of the F12 media. • 4. The 10 large plates are incubated at 37° C.+5% CO2 for ˜2 days or until the cells are confluent. • 5. The 10 large plates are split into 60 large plates (using Trypsin-EDTA as #3 except 4 ml of F12 medium are added to resuspend cells and 1 ml is aliquoted to 6 new plates containing 19 ml of F12 medium each). • 6. Plates are incubated at […]+5% CO2 for ˜3 days or until cell are confluent. • 7. The 60 large plates are then split into 60 roller bottles (100-150 million cells/bottle). Medium is aspirated off, 2 ml of Trypsin-EDTA are added to each plate and incubated at RT for ˜2 minutes or until cells have lifted off plates. Eight ml of F12 medium are added to each plate to resuspend cells and the entire 10 ml are added to 1 roller bottle containing 90 ml of the F12 medium. • 8. The 60 roller bottles are immediately placed on their sides and transferred to the roller bottle incubator. They are incubated at 37° C.+5% CO2 for ˜3-5 days. Cells are spun at 30-40% motor speed in the Forma incubator. • 9. Medium is poured off and cells are washed 2× in PBS. • 10. Cells are then scraped off in 20 ml of PBS and the bottles are rinsed again with 5 ml of PBS to remove any remaining cells. Cells are stored on ice before membrane preparation. • 11. The yield for 60 D3 roller bottles has varied from ˜260-500 mg. • Note: All tissue culture reagents are from Gibco-BRL. C. Membrane Preparation
The cells are harvested into 250 ml centrifuge tubes with 100 volumes of cold phosphate buffered saline (PBS) and spun down (1200×G for 10 min at 4° C.). The medium is removed and 100 ml PBS are added to each centrifuge tube, cells are resuspend and spun down again. The PBS is removed and the final pellet is homogenized in an appropriate volume of 10% DMSO with a polytron on ice at a medium setting.
1. 0.5M Tris Buffer, pH 7.7 • a) 44.4 g Tris HCl 26.5 g Tris Base q.s. to 1 Liter (0.5 M Tris buffer, pH 7.7 at 37° C.) • b) make a 1:10 dilution in distilled H2O (0.05 M. Tris buffer, pH 7.7) 2. Tris Buffer Containing Physiological Salts • a) Stock buffer • NaCl 7.014 g • KCl 0.372 g • CaCl2 0.222 g • MgCl2 0.204 g • q.s. To 100 ml with 0.5 M. Tris Buffer • b) Dilute 1:10 in distilled H2O […]

T1 sequence (P35462 whole entry): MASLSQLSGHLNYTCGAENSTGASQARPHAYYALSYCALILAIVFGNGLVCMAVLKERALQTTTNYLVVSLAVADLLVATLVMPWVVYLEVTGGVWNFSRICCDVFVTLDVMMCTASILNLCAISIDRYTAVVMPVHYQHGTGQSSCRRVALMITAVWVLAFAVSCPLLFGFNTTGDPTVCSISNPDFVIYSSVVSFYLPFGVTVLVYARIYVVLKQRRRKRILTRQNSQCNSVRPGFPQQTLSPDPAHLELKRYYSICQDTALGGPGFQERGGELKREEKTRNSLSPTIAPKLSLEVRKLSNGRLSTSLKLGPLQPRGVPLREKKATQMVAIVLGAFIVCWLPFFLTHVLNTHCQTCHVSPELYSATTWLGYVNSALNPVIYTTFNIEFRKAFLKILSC

| SMILES | Ki [nM] |
| --- | --- |
| COc1ccc2cc(C(=O)NCCCCN3CCCN(c4csc5cc(C(F)(F)F)ccc45)CC3)[nH]c2c1 [S980647] | 17 |
| Cn1c(C(=O)NCCCCN2CCCN(c3csc4cc(C(F)(F)F)ccc34)CC2)cc2ccccc21 [S980648] | 35 |
| O=C(NCCCCN1CCCN(c2csc3cc(C(F)(F)F)ccc23)CC1)c1c[nH]c2ccccc12 [S980649] | 54 |
| O=C(NCCCCN1CCCN(c2csc3cc(C(F)(F)F)ccc23)CC1)c1cccc2[nH]ccc12 [S980650] | 43 |
| O=C(NCCCCN1CCCN(c2csc3cc(C(F)(F)F)ccc23)CC1)c1ccc2[nH]ccc2c1 [S980651] | 54 |
| O=C(NCCCCN1CCCN(c2csc3cc(C(F)(F)F)ccc23)CC1)c1ccc2cc[nH]c2c1 [S980652] | 16.8 |
| O=C(NCCCCN1CCCN(c2csc3cc(C(F)(F)F)ccc23)CC1)c1n[nH]c2ccccc12 [S980653] | 61 |
| Cn1cccc1C(=O)NCCCCN1CCCN(c2csc3cc(C(F)(F)F)ccc23)CC1 [S980655] | 40 |
| O=C(NCCCCN1CCCN(c2csc3cc(C(F)(F)F)ccc23)CC1)c1ccsc1 [S980656] | 28 |
| Cc1nn(-c2ccccc2)nc1C(=O)NCCCCN1CCCN(c2csc3cc(C(F)(F)F)ccc23)CC1 [S980657] | 175 |
| Cc1ccc(Sc2cc(C(=O)NCCCCN3CCCN(c4csc5cc(C(F)(F)F)ccc45)CC3)ccn2)cc1 [S980659] | 110 |
| Cc1nnsc1C(=O)NCCCCN1CCCN(c2csc3cc(C(F)(F)F)ccc23)CC1 [S980660] | 43.8 |
| CSc1nsc(SC)c1C(=O)NCCCCN1CCCN(c2csc3cc(C(F)(F)F)ccc23)CC1 [S980661] | 151 |
| Cc1oc(-c2ccccc2)cc1C(=O)NCCCCN1CCCN(c2csc3cc(C(F)(F)F)ccc23)CC1 [S980662] | 48 |
| Cc1oc(-c2ccc(Cl)cc2)cc1C(=O)NCCCCN1CCCN(c2csc3cc(C(F)(F)F)ccc23)CC1 [S980663] | 96 |
| O=C(NCCCCN1CCCN(c2csc3cc(C(F)(F)F)ccc23)CC1)c1ccc2nonc2c1 [S980664] | 6.1 |
| Cc1nn(-c2ccccc2)nc1C(=O)NCCCCN1CCCN(c2csc3cc(F)ccc23)CC1 [S981833] | 9 |
| O=C(NCCCCN1CCCN(c2csc3cc(F)ccc23)CC1)c1cccnc1Oc1ccccc1 [S981834] | 1.1 |
| Cc1ccc(Sc2ncccc2C(=O)NCCCCN2CCCN(c3csc4cc(F)ccc34)CC2)cc1 [S981835] | 1.2 |
| O=C(NCCCCN1CCCN(c2csc3cc(F)ccc23)CC1)c1ccno1 [S981836] | 46 |

| SMILES | Ki [nM] |
| --- | --- |
| Cc1nnsc1C(=O)NCCCCN1CCCN(c2csc3cc(F)ccc23)CC1 [S981837] | 1.3 |
| CSc1nsc(SC)c1C(=O)NCCCCN1CCCN(c2csc3cc(F)ccc23)CC1 [S981838] | 6 |
| Cc1oc(-c2ccccc2)cc1C(=O)NCCCCN1CCCN(c2csc3cc(F)ccc23)CC1 [S981839] | 1.4 |
| Cc1oc(-c2ccc(Cl)cc2)cc1C(=O)NCCCCN1CCCN(c2csc3cc(F)ccc23)CC1 [S981840] | 3.4 |
| O=C(NCCCCN1CCCN(c2csc3cc(F)ccc23)CC1)c1ccc(-c2ccccc2F)cc1 [S981842] | 2.2 |
| O=C(NCCCCN1CCCN(c2csc3cc(F)ccc23)CC1)c1cc(C(F)(F)F)cc(C(F)(F)F)c1 [S981844] | 39 |
| COc1ccc(C(=O)NCCCCN2CCCN(c3csc4cc(F)ccc34)CC2)cc1 [S981845] | 1.01 |
| O=C(NCCCCN1CCCN(c2csc3cc(F)ccc23)CC1)c1ccc(F)cc1 [S981846] | 26.9 |
| O=C(NCCCCN1CCCN(c2csc3cc(F)ccc23)CC1)c1cc(Cl)cc(Cl)c1 [S981848] | 8.3 |
| O=C(NCCCCN1CCCN(c2csc3cc(F)ccc23)CC1)c1cc(F)cc(F)c1 [S981849] | 5.03 |
| O=C(/C=C/c1ccccc1)NCCCCN1CCCN(c2csc3cc(F)ccc23)CC1 [S981850] | 0.489 |
| O=C(NCCCCN1CCCN(c2csc3cc(F)ccc23)CC1)c1ccccc1I [S981851] | 2.72 |
| O=C(Cc1ccc(C(F)(F)F)cc1)NCCCCN1CCCN(c2csc3cc(F)ccc23)CC1 [S982508] | 40.9 |
| O=C(Cc1ccc(Cl)cc1)NCCCCN1CCCN(c2csc3cc(F)ccc23)CC1 [S982509] | 12.8 |
| COc1cccc(CC(=O)NCCCCN2CCCN(c3csc4cc(F)ccc34)CC2)c1 [S982510] | 5.9 |
| CS(=O)(=O)c1ccc(CC(=O)NCCCCN2CCCN(c3csc4cc(F)ccc34)CC2)cc1 [S982511] | 12 |
| O=C(Cc1ccccc1Br)NCCCCN1CCCN(c2csc3cc(F)ccc23)CC1 [S982512] | 5.8 |
| CC1(c2ccc(C(=O)NCCCCN3CCCN(c4csc5cc(F)ccc45)CC3)cc2)NC(=O)NC1=O (stereo not drawn) [S982513] | 0.132 |
| O=C(Cc1ccccc1F)NCCCCN1CCCN(c2csc3cc(F)ccc23)CC1 [S982514] | 0.59 |
| O=C(NCCCCN1CCCN(c2csc3cc(F)ccc23)CC1)c1cc([N+](=O)[O-])cc([N+](=O)[O-])c1 [S982535] | 5.3 |

| SMILES | Ki [nM] |
| --- | --- |
| O=C(NCCCCN1CCCN(c2csc3cc(F)ccc23)CC1)c1cccc2c1-c1ccccc1C2=O [S982536] | 1.4 |
| O=C(NCCCCN1CCCN(c2csc3cc(F)ccc23)CC1)c1ccc2c(c1)C(=O)c1ccccc1-2 [S982538] | 0.51 |
| O=C(NCCCCN1CCCN(c2csc3cc(F)ccc23)CC1)c1ccc2c(c1)S(=O)(=O)c1ccccc1C2=O [S982539] | 0.8 |
| O=C(NCCCCN1CCCN(c2csc3cc(F)ccc23)CC1)c1cc(Cl)ccc1[N+](=O)[O-] [S982540] | 1.2 |
| O=C(NCCCCCN1CCCN(c2csc3cc(F)ccc23)CC1)c1c2ccccc2cc2ccccc12 [S982542] | 57 |
| O=C(NCCCCCN1CCCN(c2csc3cc(F)ccc23)CC1)c1cccs1 [S984485] | 31.6 |
| O=C(NCCCCCN1CCCN(c2csc3cc(F)ccc23)CC1)c1cccc(Cl)c1 [S984486] | 31.5 |
| COc1cc(OC)cc(C(=O)NCCCCCN2CCCN(c3csc4cc(F)ccc34)CC2)c1 [S984487] | 31.8 |
| O=C(NCCCCCN1CCCN(c2csc3cc(F)ccc23)CC1)c1cccc2ccccc12 [S984489] | 41.5 |
| O=C(NCCCCCN1CCCN(c2csc3cc(F)ccc23)CC1)c1ccc2ccccc2c1 [S984490] | 15.5 |
| O=C(NCCCCCN1CCCN(c2csc3cc(F)ccc23)CC1)c1cccc(C(F)(F)F)c1 [S984491] | 54 |
| COc1ccccc1C(=O)NCCCCCN1CCCN(c2csc3cc(F)ccc23)CC1 [S984492] | 34.7 |
| O=C(NCCCCCN1CCCN(c2csc3cc(F)ccc23)CC1)c1cccc(F)c1 [S984493] | 25.9 |
| O=C(NCCCCCN1CCCN(c2csc3cc(F)ccc23)CC1)c1cc2ccccc2s1 [S984494] | 11.6 |
| O=C(NCCCCCN1CCCN(c2csc3cc(F)ccc23)CC1)c1cccc2cc[nH]c12 [S984495] | 26.2 |
| CS(=O)(=O)c1sc(C(=O)NCCCCCN2CCCN(c3csc4cc(F)ccc34)CC2)c2c1CCC=C2 [S984496] | 8.44 |
| O=C(NCCCCCN1CCCN(c2csc3cc(F)ccc23)CC1)c1cnc(-c2cccnc2)s1 [S984497] | 49.3 |
| O=C(NCCCCCN1CCCN(c2csc3cc(F)ccc23)CC1)c1csnn1 [S984498] | 39.5 |
| O=C(NCCCCCN1CCCN(c2csc3cc(F)ccc23)CC1)c1sccc1-n1cccc1 [S984499] | 28.5 |
| O=C(NCCCCCN1CCCN(c2csc3cc(F)ccc23)CC1)c1ccc(-c2ccccn2)s1 [S984501] | 15.8 |
